Literature values, collected in patent publication US9937198B2, “Multi-functional composition and preparation method and application thereof” (Suzhou Sciscape Bio-Pharmaceutical Technology Co., Ltd., priority 2013, dated 2018).

Assays:
[1] = system: rats; conditions: cited from earlier work
[2] = system: bees and other beneficial insects; conditions: in vivo; cited from earlier work
[3] = pure validamycin A; cited from earlier work

**Q.** For `OCC1=C[C@@H](N[C@H]2C[C@H](CO)[C@@H](O[C@H]3O[C@@H](CO)[C@H](O)[C@@H](O)[C@@H]3O)[C@H](O)[C@H]2O)[C@H](O)[C@@H](O)[C@@H]1O` [Validamycin A, validamycin A], which “acute oral toxicity (LD50) in rats” value [1] is on record?
**A.** The value was “above 20 g/kg”.

**Q.** What about the “toxicity to bees and other beneficial insects” value [2] of the same compound?
**A.** The value was “no toxicity”.

**Q.** And the solubility in water [3]?
**A.** The solubility in water was “soluble in water”.
